Legend:
Homo sapiens = species: Homo sapiens; test: Ratio of IC50 for Mer (unknown origin) to IC50 for Axl (unknown origin)
[1] = molecular target: T1, Tyrosine-protein kinase receptor UFO (Homo sapiens, UniProt P30530); test: Inhibition of Axl (unknown origin) by cell free assay
T1 sequence (P30530 whole entry): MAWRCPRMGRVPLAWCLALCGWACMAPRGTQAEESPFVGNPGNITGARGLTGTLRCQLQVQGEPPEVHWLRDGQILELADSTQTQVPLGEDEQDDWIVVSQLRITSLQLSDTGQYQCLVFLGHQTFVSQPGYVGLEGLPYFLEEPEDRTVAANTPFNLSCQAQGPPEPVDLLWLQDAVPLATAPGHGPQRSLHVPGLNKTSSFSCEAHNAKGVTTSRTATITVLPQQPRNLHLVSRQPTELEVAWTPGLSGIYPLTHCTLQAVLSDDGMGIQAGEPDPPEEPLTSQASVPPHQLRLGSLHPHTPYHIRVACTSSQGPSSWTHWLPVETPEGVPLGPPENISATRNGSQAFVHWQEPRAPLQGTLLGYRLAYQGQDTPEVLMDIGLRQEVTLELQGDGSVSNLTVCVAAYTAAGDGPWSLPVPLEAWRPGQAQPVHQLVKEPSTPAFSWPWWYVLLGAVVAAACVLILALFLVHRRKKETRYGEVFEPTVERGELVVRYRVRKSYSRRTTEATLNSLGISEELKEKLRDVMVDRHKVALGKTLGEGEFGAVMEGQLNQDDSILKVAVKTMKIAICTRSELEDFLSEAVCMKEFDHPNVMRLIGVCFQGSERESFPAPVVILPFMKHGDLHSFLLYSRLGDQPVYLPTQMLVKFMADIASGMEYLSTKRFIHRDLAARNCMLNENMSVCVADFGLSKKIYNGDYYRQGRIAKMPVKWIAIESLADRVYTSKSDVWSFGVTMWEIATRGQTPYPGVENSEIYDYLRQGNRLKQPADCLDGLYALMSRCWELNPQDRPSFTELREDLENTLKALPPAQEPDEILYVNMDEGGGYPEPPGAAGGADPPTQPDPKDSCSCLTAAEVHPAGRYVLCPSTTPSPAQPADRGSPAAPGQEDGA

[2] = molecular target: T2, Tyrosine-protein kinase Mer (Mus musculus, UniProt Q60805); test: Inhibition of Mer in mouse BaF3 cells; format: cell-based
T2 sequence (Q60805 whole entry): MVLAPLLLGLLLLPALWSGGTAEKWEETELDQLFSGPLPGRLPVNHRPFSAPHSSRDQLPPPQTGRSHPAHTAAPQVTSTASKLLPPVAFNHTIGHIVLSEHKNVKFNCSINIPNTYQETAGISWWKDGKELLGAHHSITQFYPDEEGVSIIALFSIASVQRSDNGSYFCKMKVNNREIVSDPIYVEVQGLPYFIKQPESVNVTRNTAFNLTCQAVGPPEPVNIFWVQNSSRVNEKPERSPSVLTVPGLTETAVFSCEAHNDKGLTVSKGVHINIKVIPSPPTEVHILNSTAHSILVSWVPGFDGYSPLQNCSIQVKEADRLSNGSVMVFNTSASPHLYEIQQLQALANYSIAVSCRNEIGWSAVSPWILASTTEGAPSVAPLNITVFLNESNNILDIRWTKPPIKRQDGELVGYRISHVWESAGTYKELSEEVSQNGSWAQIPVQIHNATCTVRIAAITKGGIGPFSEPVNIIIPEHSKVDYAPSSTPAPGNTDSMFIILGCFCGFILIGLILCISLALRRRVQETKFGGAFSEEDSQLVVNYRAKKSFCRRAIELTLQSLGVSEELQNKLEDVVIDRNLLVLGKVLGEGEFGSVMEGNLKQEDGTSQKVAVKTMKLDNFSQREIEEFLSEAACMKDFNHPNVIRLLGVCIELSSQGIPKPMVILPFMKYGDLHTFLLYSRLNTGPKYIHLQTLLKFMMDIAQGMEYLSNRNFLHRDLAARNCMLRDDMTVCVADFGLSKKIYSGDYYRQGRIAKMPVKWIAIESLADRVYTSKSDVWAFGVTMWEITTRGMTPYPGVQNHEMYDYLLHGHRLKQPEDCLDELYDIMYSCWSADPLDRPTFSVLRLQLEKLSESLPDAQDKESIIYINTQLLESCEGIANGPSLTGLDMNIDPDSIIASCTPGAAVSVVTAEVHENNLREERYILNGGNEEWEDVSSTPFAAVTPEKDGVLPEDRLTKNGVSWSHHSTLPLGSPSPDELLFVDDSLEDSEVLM

[3] = molecular target: T3, Tyrosine-protein kinase Mer (Homo sapiens, UniProt Q12866); test: Inhibition of Mer (unknown origin) by cell free assay
T3 sequence (Q12866 whole entry): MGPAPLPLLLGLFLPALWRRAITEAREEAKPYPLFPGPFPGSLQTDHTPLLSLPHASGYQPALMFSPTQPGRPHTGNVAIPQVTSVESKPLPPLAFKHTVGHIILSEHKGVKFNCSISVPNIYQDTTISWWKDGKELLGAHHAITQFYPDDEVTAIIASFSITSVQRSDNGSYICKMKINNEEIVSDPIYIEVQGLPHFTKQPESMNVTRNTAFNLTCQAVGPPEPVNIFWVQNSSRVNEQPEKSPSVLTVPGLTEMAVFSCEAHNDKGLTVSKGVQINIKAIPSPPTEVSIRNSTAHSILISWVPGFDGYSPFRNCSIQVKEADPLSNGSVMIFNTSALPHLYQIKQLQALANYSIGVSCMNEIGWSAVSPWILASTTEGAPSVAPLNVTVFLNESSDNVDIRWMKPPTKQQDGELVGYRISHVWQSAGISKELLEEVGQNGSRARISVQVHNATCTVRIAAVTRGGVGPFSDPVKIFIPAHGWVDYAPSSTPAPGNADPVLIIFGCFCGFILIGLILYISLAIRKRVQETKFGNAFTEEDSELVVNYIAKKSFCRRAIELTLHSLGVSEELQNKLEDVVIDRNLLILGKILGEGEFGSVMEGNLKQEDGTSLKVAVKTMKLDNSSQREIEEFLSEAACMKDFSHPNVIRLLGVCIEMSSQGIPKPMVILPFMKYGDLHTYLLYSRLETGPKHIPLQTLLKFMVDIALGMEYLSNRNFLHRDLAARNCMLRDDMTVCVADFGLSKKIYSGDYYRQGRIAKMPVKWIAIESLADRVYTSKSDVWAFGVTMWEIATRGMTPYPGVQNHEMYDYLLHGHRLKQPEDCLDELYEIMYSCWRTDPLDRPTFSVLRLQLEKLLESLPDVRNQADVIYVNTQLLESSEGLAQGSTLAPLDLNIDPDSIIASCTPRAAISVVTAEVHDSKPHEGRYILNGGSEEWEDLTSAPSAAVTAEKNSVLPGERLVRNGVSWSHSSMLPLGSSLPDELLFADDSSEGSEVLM

BaF3 = test: Ratio of IC50 for Mer in mouse BaF3 cells to IC50 for Axl in mouse BaF3 cells; format: cell-based
[4] = molecular target: T4, Tyrosine-protein kinase receptor UFO (Mus musculus, UniProt Q00993); test: Inhibition of Axl in mouse BaF3 cells; format: cell-based
T4 sequence (Q00993 whole entry): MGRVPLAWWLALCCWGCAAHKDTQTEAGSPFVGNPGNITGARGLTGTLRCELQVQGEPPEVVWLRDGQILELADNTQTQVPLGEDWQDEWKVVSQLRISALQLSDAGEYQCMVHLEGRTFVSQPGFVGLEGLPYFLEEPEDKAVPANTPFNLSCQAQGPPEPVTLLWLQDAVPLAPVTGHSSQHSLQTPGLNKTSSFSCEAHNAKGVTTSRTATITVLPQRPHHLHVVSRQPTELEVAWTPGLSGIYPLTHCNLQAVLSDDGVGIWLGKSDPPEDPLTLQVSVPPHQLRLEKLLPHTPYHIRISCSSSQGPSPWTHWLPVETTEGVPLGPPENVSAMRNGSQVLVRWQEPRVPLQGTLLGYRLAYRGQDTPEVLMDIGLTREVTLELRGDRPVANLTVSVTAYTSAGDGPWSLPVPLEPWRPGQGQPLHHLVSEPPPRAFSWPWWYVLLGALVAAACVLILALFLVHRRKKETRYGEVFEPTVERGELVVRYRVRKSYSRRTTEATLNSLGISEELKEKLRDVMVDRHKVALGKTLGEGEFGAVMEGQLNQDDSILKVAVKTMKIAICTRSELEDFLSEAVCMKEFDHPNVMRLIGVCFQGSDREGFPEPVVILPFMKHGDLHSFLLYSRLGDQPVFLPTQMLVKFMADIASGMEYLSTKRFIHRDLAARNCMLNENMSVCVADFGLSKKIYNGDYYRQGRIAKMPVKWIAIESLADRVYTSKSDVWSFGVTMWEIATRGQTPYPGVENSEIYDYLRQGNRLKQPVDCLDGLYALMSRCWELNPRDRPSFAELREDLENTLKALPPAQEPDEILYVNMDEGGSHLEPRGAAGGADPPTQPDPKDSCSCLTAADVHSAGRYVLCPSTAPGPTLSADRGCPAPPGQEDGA

SMILES	Ratio IC50 (Homo sapiens)	IC50 [1]	IC50 [2]	IC50 [3]	IC50 [4]	Ratio IC50 (BaF3)
CN1CCC(CN2CCc3c(ncnc3Oc3ccc(NC(=O)c4cn(C5CC5)c(=O)n(-c5ccc(F)cc5)c4=O)cc3F)C2)CC1	26	32 nM	4110 nM	830 nM	770 nM	5.3
CC(C)n1cc(C(=O)Nc2ccc(Oc3ncnc4c3CN(C(=O)CN3CCN(C)CC3)C4)c(F)c2)c(=O)n(-c2ccc(F)cc2)c1=O	5.5	6 nM	110 nM	33 nM	42 nM	2.6
CC(C)n1cc(C(=O)Nc2ccc(Oc3ncnc4c3CC(=O)N4)c(F)c2)c(=O)n(-c2ccc(F)cc2)c1=O	2.9	26 nM	280 nM	76 nM	84 nM	2.9
CC(C)n1cc(C(=O)Nc2ccc(Oc3ncnc4c3CCN(CC(=O)N3CCN(C)CC3)C4)c(F)c2)c(=O)n(-c2ccc(F)cc2)c1=O	22	9.5 nM	370 nM	210 nM	78 nM	4.7
CC(C)n1cc(C(=O)Nc2ccc(Oc3ncnc4c3CN(CC3CCN(C)CC3)C4)c(F)c2)c(=O)n(-c2ccc(F)cc2)c1=O	11	6.2 nM	80 nM	69 nM	32 nM	2.5
CC(C)n1cc(C(=O)Nc2ccc(Oc3ncnc4c3CN(C)CC4)c(F)c2)c(=O)n(-c2ccc(F)cc2)c1=O	4.2	64 nM	810 nM	270 nM	150 nM	4.2
CC(C)n1cc(C(=O)Nc2ccc(Oc3ncnc4c3CN(CC3CCOCC3)C4)c(F)c2)c(=O)n(-c2ccc(F)cc2)c1=O	4	8.6 nM	240 nM	34 nM	93 nM	2.6
CC(C)n1cc(C(=O)Nc2ccc(Oc3ncnc4c3CCN(C3CCN(C)CC3)C4)c(F)c2)c(=O)n(-c2ccc(F)cc2)c1=O	5.5	5.6 nM	55 nM	31 nM	13 nM	4.2
CC(C)n1cc(C(=O)Nc2ccc(Oc3ncnc4c3CCN(CC3CN(C)C3)C4)c(F)c2)c(=O)n(-c2ccc(F)cc2)c1=O	12	6.3 nM	92 nM	77 nM	22 nM	4.2

Now those with a lower IC50 [1], led by results:

Ratio IC50 (Homo sapiens)	IC50 [1]	IC50 [2]	IC50 [3]	IC50 [4]	SMILES	Ratio IC50 (BaF3)
19	2.7 nM	34 nM	51 nM	7.9 nM	CN1CCC(CN2CCc3c(ncnc3Oc3ccc(NC(=O)c4cn(C5CCCC5)c(=O)n(-c5ccc(F)cc5)c4=O)cc3F)C2)CC1	4.3
9.7	3.5 nM	79 nM	34 nM	20 nM	CC(C)n1cc(C(=O)Nc2ccc(Oc3ncnc4c3CCN(C3CCN(CC5CC5)CC3)C4)c(F)c2)c(=O)n(-c2ccc(F)cc2)c1=O	4
51	5.3 nM	210 nM	270 nM	34 nM	Cc1ccc(-n2c(=O)c(C(=O)Nc3ccc(Oc4ncnc5c4CCN(CC4CCN(C)CC4)C5)c(F)c3)cn(CC3CC3)c2=O)nc1	6.2
7.1	3.8 nM	24 nM	27 nM	5.3 nM	CC(C)n1cc(C(=O)Nc2ccc(Oc3ncnc4c3CCN(C3CN(C)C3)C4)c(F)c2)c(=O)n(-c2ccc(F)cc2)c1=O	4.5
33	1.9 nM	51 nM	62 nM	8.4 nM	CN1CCC(CN2CCc3c(ncnc3Oc3ccc(NC(=O)c4cn(CC5CC5)c(=O)n(-c5ccc(F)cc5)c4=O)cc3F)C2)CC1	6.1
< 1.5	2.7 nM	34 nM	< 4.1 nM	12 nM	CC(C)n1cc(C(=O)Nc2ccc(Oc3ncnc4c3CN(C(=O)C3CC3)C4)c(F)c2)c(=O)n(-c2ccc(F)cc2)c1=O	2.8
